From article PMC8566451, “Lead optimization of novel quinolone chalcone compounds by a structure–activity relationship (SAR) study to increase efficacy and metabolic stability” (Scientific Reports, 2021)
Like-named read-outs stand apart in the source and are kept apart here.

Experiments:
[1] = system: HeLa; assay: Sulforhodamine B (SRB) assay; assay type: cell-based; conditions: Homo sapiens; for IC50: HeLa, Supplementary Table S1, SRB; for GI50: HeLa cervical cancer cells, 48 h, SRB
Method: (§1) The human MDA-MB-231, MCF7, MDA-MB-468, RPMI-8226 and HeLa cell lines were purchased from ATCC and maintained in Dulbecco's Modified Eagle Medium (DMEM)—high glucose supplemented with 10% fetal bovine serum (FBS) and antibiotics/antimycotics. Cell line authentication was carried out by Genetica DNA Laboratories (Burlington, NC) using a short tandem repeat (STR) profiling method (March 2015; July 2015; September 2016). Melanoma cells E-055 (MZ-Mel-3), E-097 (Mel-SOE), E-112 (UKRV-Mel-38), E-157 (UKRV-Mel-17) were obtained from the European Searchable Tumour Line Database (ESTDAB) cell bank (a kind gift of Dr. Graham Pawelec, Tubingen University, Germany). MDA-MB-435 was purchased from the Division of Cancer Treatment and Diagnosis Tumor Repository. All melanoma cells were cultured in Roswell Park Memorial Institute (RPMI) medium supplemented with 10% FBS and P/S/antimycotics. Primary human epidermal melanocytes from normal adult abdominal skin were purchased from ATCC (cat # PCS-200–013) and Cell Applications (cat#104-05a). The melanocytes were cultured in the media supplied by the companies.
(§2) The SRB assay was used to assess drug-induced cytotoxicity and cell proliferation as previously described[2],[33],[34] with a few modifications. Briefly, cells were plated 10,000 to 25,000 cells/cm^2 in 96-well plates (100 µl medium) and allowed to adhere overnight. The cell counts were different for each cell line to ensure optimal cell growth for the duration of the assay. Eight different concentrations of compound solutions using 2–4 times serial dilutions (100 µl). Cells were then incubated for an additional 48 h and then fixed with 100 µl ice-cold 10% (w/v) trichloroacetic acid (TCA) (without removing the cell medium, final concentration, 3.3% of TCA) and stained with 0.4% SRB (w/v) in 1% acetic acid (v/v). The relative growth rate (%) was calculated for each of the compound concentrations according to the following formula: 100 * (T − T0)/(C − T0), in which T is the optical density (OD) after exposure to a certain concentration of the compound after 48 h, T0 is the OD at the start of drug exposure (time zero) and C is the control growth. The GI50 for each compound was obtained from a non-linear sigmoidal dose–response (variable slope) curve fitted by GraphPad Prism v.4.03 software.

[2] = system: MCF7; assay: Sulforhodamine B (SRB) assay; assay type: cell-based; conditions: Homo sapiens; for IC50: MCF7, Supplementary Table S1, SRB; for GI50: MCF7 breast cancer cells, 48 h, SRB
Method: as §1, §2

[3] = system: MDA-MB231; assay: Sulforhodamine B (SRB) assay; assay type: cell-based; conditions: Homo sapiens, MDA-MB-231; for GI50: MDA-MB231 breast cancer cells, 48 h, SRB; for IC50: Supplementary Table S1, SRB
Method: as §1, §2

[4] = system: MDA-MB435; assay: Sulforhodamine B (SRB) assay; assay type: cell-based; conditions: Homo sapiens, MDA-MB-435, MDA-MB435 cells, 48 h
Method: as §1, §2

[5] = system: MDA-MB468; assay: Sulforhodamine B (SRB) assay; assay type: cell-based; conditions: Homo sapiens, MDA-MB-468, MDA-MB468 breast cancer cells, 48 h
Method: as §1, §2

[6] = system: MZ-Mel-3; assay: Sulforhodamine B (SRB) assay; assay type: cell-based; conditions: MZ-Mel-3 melanoma cells, 48 h
Method: as §1, §2

[7] = system: Mel-SOE; assay: Sulforhodamine B (SRB) assay; assay type: cell-based; conditions: Mel-SOE melanoma cells, 48 h
Method: as §1, §2

[8] = system: RPMI-8226; assay: Sulforhodamine B (SRB) assay; assay type: cell-based; conditions: Homo sapiens, Supplementary Table S1, SRB
Method: as §1, §2

[9] = system: UKRV-Mel-17; assay: Sulforhodamine B (SRB) assay; assay type: cell-based; conditions: UKRV-Mel-17 melanoma cells, 48 h
Method: as §1, §2

[10] = system: UKRV-Mel-38; assay: Sulforhodamine B (SRB) assay; assay type: cell-based; conditions: UKRV-Mel-38 melanoma cells, 48 h
Method: as §1, §2

[11] = system: MDA-MB231-TaxR; assay: Sulforhodamine B (SRB) assay; assay type: cell-based; conditions: Homo sapiens, MDA-MB231-TaxR paclitaxel-resistant breast cancer cells, 48 h
Text: We had initially determined that quinolone chalcones were promising anti-proliferative through a first round screening and identified CTR-17 and CTR-20 as favorable structures for anticancer activity. […] We carried out a comparative SAR study to determine if we could further optimize the quinolone chalcone to maximize efficacy. The Sulforhodamine B (SRB) assay was used to measure the anti-proliferative/cell killing activities of CTRs, for which several different cell lines were use: the cervical cancer HeLa, the breast cancer cell lines MDA-MB231, MDA-MB468, MDA-MB231TaxR (an induced paclitaxel-resistant sub-cell line of the MDA-MB231[9]) and MCF7. In addition, a subset was tested against the melanoma cell lines MZ-MEL-3.1, Mel-SOE, UKRV-Mel-38, UKRV-Mel-17 and MDA-MB-435 (Table 1, Supplemental Table S1).
as §2

[12] = system: primary human epidermal melanocytes; assay: GI50 on primary skin cells; assay type: cell-based; conditions: for GI50: Homo sapiens, Melanocyte, primary skin cells; for Selectivity Index (primary skin cells): primary melanocytes versus average GI50 of cancer cells
Method: as §1, §2

[13] = target: T1, porcine tubulin (Sus scrofa, UniProt P02550+P02554); assay: In vitro tubulin polymerization assay; assay type: biochemical; conditions: 20 µM porcine tubulin; for effect on tubulin polymerization: 3 µM compound, 37 °C, 60 min; for effect on tubulin polymerization at higher concentrations: 10, 15 and 20 µM compound
T1 construct: purchased Cytoskeleton Inc., Denver, CO BK011P
T1 sequence (P02554 whole entry): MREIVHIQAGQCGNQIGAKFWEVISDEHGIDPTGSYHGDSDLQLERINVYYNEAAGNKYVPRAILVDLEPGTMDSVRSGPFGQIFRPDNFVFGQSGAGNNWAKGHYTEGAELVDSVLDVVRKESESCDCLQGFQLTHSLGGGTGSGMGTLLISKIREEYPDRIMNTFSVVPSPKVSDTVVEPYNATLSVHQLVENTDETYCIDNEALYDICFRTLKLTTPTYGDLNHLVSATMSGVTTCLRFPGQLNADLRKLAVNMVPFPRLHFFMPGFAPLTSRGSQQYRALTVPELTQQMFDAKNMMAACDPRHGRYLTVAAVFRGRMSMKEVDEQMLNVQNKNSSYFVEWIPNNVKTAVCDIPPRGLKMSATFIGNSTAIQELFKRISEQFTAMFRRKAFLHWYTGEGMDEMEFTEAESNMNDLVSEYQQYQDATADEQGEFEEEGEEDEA
T1 sequence (P02550 whole entry): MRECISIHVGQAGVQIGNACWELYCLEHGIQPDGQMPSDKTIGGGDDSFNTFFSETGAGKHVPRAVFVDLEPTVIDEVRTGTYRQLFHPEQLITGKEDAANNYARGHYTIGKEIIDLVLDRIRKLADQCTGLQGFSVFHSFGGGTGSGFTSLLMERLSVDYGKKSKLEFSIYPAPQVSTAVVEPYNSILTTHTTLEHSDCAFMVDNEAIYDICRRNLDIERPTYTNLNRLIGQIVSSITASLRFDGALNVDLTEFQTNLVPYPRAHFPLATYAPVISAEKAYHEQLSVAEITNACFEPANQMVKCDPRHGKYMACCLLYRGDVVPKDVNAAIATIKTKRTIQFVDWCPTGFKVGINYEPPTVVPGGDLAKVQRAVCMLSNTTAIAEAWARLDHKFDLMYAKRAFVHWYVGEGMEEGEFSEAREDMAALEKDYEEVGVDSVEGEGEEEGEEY
Method: Spontaneous polymerization of 20 µM porcine tubulin was initiated with the addition of 1 mmol/L GTP at 37 °C and monitored every minute for 60 min in the presence of the indicated concentration of CTR-21, CTR-32, nocodazole, paclitaxel, or a DMSO vehicle control. To make the graph simpler, only 3 µM concentration is shown. […] A modified Dixon plot was used to determine the inhibitory concentration of CTR-21 and CTR-32 (Ki).
Microtubule assembly was assessed using a Tubulin Polymerization assay kit (BK011P; Cytoskeleton Inc., Denver, CO). […] Polymerization was started by incubating at 37 °C and followed by absorbance readings every 1 min at 340 nm for 1 h using a Synergy H4 plate reader.

[14] = system: cancer cell lines (breast cancer, melanoma, cervical cancer); assay: SRB assay, average GI50 over cancer cell lines; assay type: cell-based; conditions: for fold decrease in GI50 relative to CTR-17: average GI50 compared with CTR-17
Method: as §2

[15] = Melanocytes #1, read-out: GI50 Melanocytes #1
[16] = Melanocytes #2, read-out: GI50 Melanocytes #2
[17] = Table 1 and Supplemental Table S1 cell lines, read-out: GI50 range over the cancer cell lines
[18] = average over the cell lines of Table 1 or Supplemental Table S1, read-out: average GI50

SMILES | IC50 [1] [nM] | GI50 [1] [nM] | IC50 [2] [nM] | GI50 [2] [nM] | GI50 [3] [nM] | IC50 [3] [nM] | GI50 [4] [nM] | GI50 [5] [nM] | GI50 [6] [nM] | GI50 [7] [nM] | IC50 [8] [nM] | GI50 [9] [nM] | GI50 [10] [nM] | GI50 [11] [nM] | GI50 [12, 15] [nM] | GI50 [12, 16] [nM] | Selectivity Index (primary skin cells) [12] | effect on tubulin polymerization [13] | effect on tubulin polymerization at higher concentrations [13] | GI50 [14, 17] [nM] | further results
CCOc1ccccc1C(=O)/C=C/c1cc2ccccc2[nH]c1=O [CTR-32, (E)-3-(3-(2-ethoxyphenyl)-3-oxoprop-1-enyl)quinolin-2(1H)-one] | 12.9 ± 0.35 | 11 ± 2 | 46.4 ± 3.61 | 27 ± 6 | 20 ± 2 | 44.2 ± 4.21 | 13 ± 5 | 26 | 6 ± 2 | 33 ± 9 | 6.29 ± 1.43 | 18 ± 3 | 22 ± 3 | 22 ± 4 | 2630 ± 782 | 3630 ± 1080 | 158 | does not affect the steady state dynamics or Vmax of tubulin polymerization | almost completely inhibited the formation of microtubule polymers | 5 to 91 | fold decrease in GI50 relative to CTR-17 [14]: 23 fold; GI50 [14, 18]: 20 nM
COc1ccccc1C(=O)/C=C/c1cc2cccc(OC)c2[nH]c1=O [CTR-21, (E)-8-methoxy-3-(3-(2-methoxyphenyl)-3-oxoprop-1-enyl) quinolin-2(1H)-one] | 11.9 ± 1.4 | 8 ± 3 | 75.1 ± 3.07 | 16 ± 5 | 17 ± 3 | 56.9 ± 10.5 | 7 ± 2 | 29 ± 10 | 6 ± 1 | 27 ± 5 | 5.34 ± 0.89 | 9 ± 2 | 13 ± 3 | 32 ± 8 | 2090 ± 804 | 3050 ± 960 | 157 | reduced steady-state | did not appreciably increase the inhibition of tubulin dynamics | 5 to 91 | SI, cancer over normal cells [14]: > 100 fold; enhancement of potency over CTR-17 and CTR-20 [14]: ~ 30 fold; fold decrease in GI50 relative to CTR-17 [14]: 31 fold; GI50 [14, 18]: 16.4 nM
